This test has as its target T1, vitronectin-bound PAI-1 (Homo sapiens, UniProt P05121).
T1 construct: made in house; host or cells: E. coli (PAI-1); vitronectin a gift
Description: PAI-1 activity assay in the presence of vitronectin. It counts as biochemical. Particulars: for T1/2 of vitronectin-bound PAI-1: PAI-1 0.7 μM with vitronectin 1.7 μM, 37° C., 190±12 minutes without peptide. As to the method: PAI-1 (0.7 μM) was incubated at 37° C. with either P1-P14 peptide or control peptide (55 μM) in 0.1M HEPES, 0.1M NACl, 0.1% PEG (MW 8000), pH 7.4 (assay buffer). At timed intervals 0-110 minutes), 5 μL of the PAI-1:peptide mixture was added to 96 well microtiter plates containing 45 μL of t-PA (0.03 μM in assay buffer), then incubated for 30 minutes at 37° C. Spectrozyme t-PA (final concentration of 150 μM) was added to yield a final reaction volume of 70 μL, and 30 minutes later the absorbance at 405 nm was determined in a THERMO-max (Molecular Devices, Palo Alto, Calif.) microplate reader. 100% PAI-1 activity was defined as activity observed at time zero, while 0% PAI-1 activity was defined as that observed in the absence of PAI-1. A standard t-PA activity curve, derived from absorbance values of varying concentrations of t-PA incubated in the absence of PAI-1, was used to determine PAI-1 activity.
Since vitronectin binds and stabilizes the active conformation of PAI-1, the capacity of the Thr-Val-Ala-Ser-Ser-Ser-Thr-Ala-Val-Ile-Val-Ser-Ala-Arg (SEQ ID NO: 1) to inactivate vitronectin-bound PAI-1 was examined. PAI-1 (0.7 μM) was incubated with vitronectin (1.7 μM) for 30 minutes at 37° C., then Thr-Val-Ala-Ser -Ser-Ser-Thr-Ala-Val-Ile-Val-Ser-Ala-Arg (SEQ ID NO: 1) or control peptide (55 μM) was added, and the PAI-1 T1/2 was determined. In the presence of vitronectin, the T1/2 of PAI-1 was prolonged approximately 2-fold (98±18 to 190±12 minutes), similar to previous reports (Declerck et al. 1988).

Ends that are not written are not given here.

T1 sequence (P05121 24-402): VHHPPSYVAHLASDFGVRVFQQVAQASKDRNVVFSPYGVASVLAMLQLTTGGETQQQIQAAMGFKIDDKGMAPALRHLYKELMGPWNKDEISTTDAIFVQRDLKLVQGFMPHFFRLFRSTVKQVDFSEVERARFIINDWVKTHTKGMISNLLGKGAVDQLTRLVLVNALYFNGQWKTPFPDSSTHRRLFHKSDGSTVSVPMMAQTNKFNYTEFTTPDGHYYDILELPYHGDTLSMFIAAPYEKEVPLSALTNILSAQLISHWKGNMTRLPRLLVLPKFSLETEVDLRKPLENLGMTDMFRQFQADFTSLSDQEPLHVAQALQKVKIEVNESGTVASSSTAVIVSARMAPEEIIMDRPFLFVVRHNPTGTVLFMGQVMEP

For the substance “Ac-TVASSSTAVIVSAR [SEQ ID NO: 1, Thr-Val-Ala-Ser-Ser-Ser-Thr-Ala-Val-Ile-Val-Ser-Ala-Arg]”, under “peptide 55 μM”, the “T1/2 of vitronectin-bound PAI-1” value was “about 120 minutes” and the “fold decrease of the half-life of vitronectin-bound PAI-1” value turned out to be 1.6 fold. The “T1/2 of vitronectin-bound PAI-1” value (peptide 55 μM, listed as P1-P14 peptide) is given as “only slowly inactivated”. Also, the “decrease of the half-life of PAI-1 in the presence of vitronectin” value (from approximately 190 to about 120 minutes) was approximately 40%.
